{"source": "patent US20200216492A1", "about": "“USE OF C-TERMINALLY EXTENDED PEPTIDES TO DISRUPT INHIBITOR NK CELL RECEPTOR INTERACTIONS WITH MHC I” (La Jolla Institute for Allergy and Immunology, priority 2016, published 2020)", "key": {"KIR2DL1-Fc": {"target": "KIR2DL1-Fc", "sequence (P43626 22-245 limits assumed)": "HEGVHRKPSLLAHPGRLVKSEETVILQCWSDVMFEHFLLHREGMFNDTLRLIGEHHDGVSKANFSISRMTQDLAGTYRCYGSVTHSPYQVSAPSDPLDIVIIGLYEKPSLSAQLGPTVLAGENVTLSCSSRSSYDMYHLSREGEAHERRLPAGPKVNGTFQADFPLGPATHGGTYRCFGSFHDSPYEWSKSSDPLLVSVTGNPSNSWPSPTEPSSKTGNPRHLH", "assay": "KIR2DL1-Fc binding to immobilized HLA-peptide complexes by BLI (Octet RED96)", "conditions": "2 μM KIR2DL1-Fc, biotinylated complex on SA sensor tip", "description": "Binding to buffer only was used for background subtraction.\nSynthetic DNA constructs of KIR3DL1 (HLA-B*57:01) and KIR2DL1 (HLA-C*04:01) are cloned and expressed as Fc-fusion constructs in SF9 insect cells. HLA-B*57:01 and […] are refolded with both core and extending peptides and captured on a Strepavidin sensor chip for SPR analysis or a SA sensor tip for BLI analysis as for HLA-A*02:01. […] KIRDL-Fc fusion proteins are, therefore, used to measure the binding affinity, since their bivalency will increase overall binding affinity. […] Further, KIRDL-Fc fusion proteins are immobilized using an anti-human Fc antibody capture chip (GE Healthcare) and the binding of HLA-tetramers to the immobilized KIRDL receptors measured. This increases affinity even further (tetra-valency versus bivalency). […] The C-terminally extended peptides all disrupt KIR2DL1 binding, regardless of whether they induce the “lysine lift” or the “tyrosine swing” (FIG. 19). […] This is proof of concept that structural alterations around the F pocket of HLA alleles that form the primary binding site for KIRL abrogate receptor binding."}, "[1]": {"test_system": "HLA-B*58:02 transfected 721.221 cells", "assay": "Cytotoxicity assay using KIR3DL1 transfected YTS cells and peptide-pulsed 721.221 target cells", "format": "cell-based", "conditions": "peptide 100 μM; KIR3DL1 YTS effectors; E:T 10:1; 2-4 hrs; preliminary study", "procedure": "The ability of KIR3DL1 or KIR2DL1 transfected YTS cells to kill HLA expressing 721.221 target cells is tested. Since YTS cells are devoid of any inhibitory KIR, expression of a single KIR will tolerize YTS cells against the 721.221 target cell expressing the allele-matched HLA-B*58:02 (instead of HLA-B*57:01 used for SPR and crystallography) or HLA-C*04:01. HLA-B*58:02 is identical in sequence in the binding region for KIR3DL1 and reported to bind KIR3DL1 allele. 721.221/HLA-C*04:01 cells expressing a TAP inhibitor as well as the corresponding KIR2DL1 YTS transfectants have been obtained. In these 721.221 cells, peptides have to be loaded on the empty HLA-C on the cell surface. The advantage of this system is that the degree of inhibition can be titrated using different concentration of peptides. Target cell killing is assessed using a europium-based fluorescence killing assay as described (67). In this setup, the antibody IPH2101 serves as a positive control for killing, and the efficacy of extending peptides to induce killing is compared. IPH2101 is expressed, for which the sequence is available (Patent application: PCT/US2013/063068), similar to Fc fusion proteins in insect cells. […]\nCytotoxicity assay using KIR transfected YTS cells (FIG. 21) has been established. […] Finally, fluorescence was measured in a Perkin Elmer EnVision™ time-resolved fluorometer. […]"}, "[2]": {"test_system": "KIR3DL1 expressing YTS cells", "assay": "HLA-B*57:01/peptide tetramer staining of KIR3DL1 transfected YTS cells (flow cytometry)", "format": "cell-based", "conditions": "KIR3DL1 positive and negative YTS cells; 10, 50 and 100 μg/ml tetramer; 30 min on ice; preliminary study", "procedure": "KIR3DL1 negative (top) and positive (bottom) YTS cells were analyzed for their staining using the indicated HLA-B/peptide tetramer. Binding of the tetramer to KIR3DL1 negative cells likely indicates binding of the tetramer to another receptor, such as 2B4 and, therefore, different KIR transfected cells, such as K562 cells will be used next.\nIn parallel, whether the HLA-tetramers can stain K562 cells that have been transfected with the corresponding allele-matched KIRDL receptor is tested. Without being limited to any particular theory, it is expected that HLA tetramers presenting the core peptide will stain K562 cells, while staining with tetramers presenting the C-terminally extended peptides is greatly impaired and will overlap with the isotype control. Appropriate anti KIR antibodies are used as positive control (Anti-KIR3DL1 clone DX9 and anti-KIR2DL1 clone HP-MA4 from Biolegend). […]"}, "HLA-C*03:07": {"target": "HLA-C*03:07 (Homo sapiens, UniProt P10321, A176E/A330V/A97T/C25G/C350S/D114A/D33Y/E197K/L119I/L127V/L171W/L218V/M285V/M309V/M331V/N104K/P208H/Q277E/Q291P/R243W/R45H/S101N/S123Y/S140Y/S297R/S48A/T118I/T187L/T329A/T363A/V319A)", "assay": "Refolding of HLA-C*03:07 with peptides (SEC, SDS-PAGE, MALDI-TOF)", "format": "binding", "conditions": "gel filtration", "description": "Note that A280 scale is different between the three panels.\nCore peptides were chosen that have been crystallized in complex with HLA-B as well as HLA-C and designed variants containing C-terminal extensions (Table 3). […] HLA-C can be optimized while producing more HLA-B complexes for crystallization and structure determination using established methods. Crystallization is not major problem, since only HLA I-peptide complexes are crystallized and not ternary complexes containing a receptor. For HLA-A2*02:01, all 9 complexes were successfully crystallized thereby establishing a routine procedure. Structure determination is performed using molecular replacement (MR), using available reference structures."}, "HLA-A*02:01": {"target": "T1, HLA-A*02:01 (Homo sapiens, UniProt P04439, D140Y/D185E/D98H/E176V/E277Q/G131W/G231S/I119V/I121R/I166T/I218V/L300P/L318F/N151K/N90K/P208A/P217A/Q86G/Q94H/R138H/R169H/T345S)", "T1 construct": "HLA-A*02:01 class I heavy chain ectodomain (residues 21-274); made in house", "assay": "Thermal denaturation assay (differential scanning fluorimetry) of HLA-A*02:01-β2m-peptide complexes", "format": "binding", "conditions": "for relative stability of HLA-peptide complex: thermal denaturation", "protocol": "HLA-A*02:01-β2m-peptide complexes with the various different peptides were analyzed for thermal denaturation by differential scanning fluorimetry using a LightCycler 480 (Roche). HLA-A*02:01-β2m-peptide complexes with different peptides at 100 μM in reaction buffer (20 mM Tris-HCl pH 7.5, 150 mM NaCl) were used as stock solutions. Each reaction mixture constituted of 1-2 μl protein complex stock solution, 2l of SYPRO Orange dye (100×, Invitrogen) made up to 20 μl in reaction buffer in a 96-well white plate compatible with the instrument. A temperature gradient from 20° C.-85° C. at steps of 0.06° C./sec and 10 acquisitions/° C. was used for the experiment. Each experiment with individual protein-peptide complex was repeated thrice. A melt curve of the total fluorescence of the run was plotted against temperature. The minima of the first derivative of the melt curve from raw fluorescence data (temperature differential of absolute fluorescence versus temperature) provided the meting temperature (Tm) for individual HLA-A*02:01-β2m peptide complexes (inflection point of the melt curve).\nTo determine the relative stability of the individual HLA-A*02:01-peptide complexes the inventors followed their thermal denaturation by differential scanning fluorimetry. The melting temperatures (Tm) obtained from the melt curves allowed the inventors to compare the stability of the different complexes (FIG. 3)."}, "HLA-A*02:01 mutants": {"test_system": "HLA-A*02:01 mutants", "assay": "Refolding of HLA-A*02:01 position 80 mutants with extending peptides (SEC)", "format": "binding", "conditions": "increase in incorrectly folded heavy chain as indicator, preliminary data", "protocol": "Refolding efficiency is judged by comparing peak high (at 45 kDa) with that of the preceding oligomeric peak.\nIt is possible that replacing T80 with amino acids Ile, Lys, and Asn as found in other common alleles may affect refolding. […] Whether a flexible F pocket in HLA-C*03:07 can be created was tested by exchange against the amino acids from HLA-A*02:01, either Thr80 or the combination of Thr80 and Thr142 together. Other amino acids at position 80 or mutate other alleles at position 80 and 142 were introduced as necessary."}}, "note": "Entries after “also recorded” stand apart in the source; their conditions may differ."}
{"sequence": "YFDPANGKFDN [Y11N]", "values": [{"measurement": "KIR2DL1-Fc binding to HLA-C*04:01-peptide complex", "setting": "KIR2DL1-Fc", "value": "abrogated"}]}
{"sequence": "LSSPVTKSFDGK [L12K]", "values": [{"measurement": "induction of YTS NK cell killing of target cells", "setting": "[1]", "value": "induce YTS NK cell killing; also recorded: appears to induce killing"}, {"measurement": "binding of Alexa Fluor-647 HLA-B*57:01/peptide tetramer to YTS cells", "setting": "[2]", "value": "bound to YTS cells, regardless whether KIR3DL1 was expressed or not"}]}
{"sequence": "LSSPVTKSFK [L10K]", "values": [{"measurement": "induction of YTS NK cell killing of target cells", "setting": "[1]", "value": "does not induce any killing"}]}
{"sequence": "GAVDPLLALD [G10D]", "values": [{"measurement": "refolding of HLA-C*03:07 with peptide", "setting": "HLA-C*03:07", "value": "protein complex of proper size was observed"}]}
{"sequence": "YLSPIASPLLDGKSLR [T. gondii C-terminally extending peptide]", "values": [{"measurement": "difference in Tm between complex with extended peptide and with nested peptide", "setting": "HLA-A*02:01; extended versus equivalent nested peptide", "value": "about 7 °C"}]}
{"sequence": "GAVDPLLAL [G9L, reference compound]", "values": [{"measurement": "refolding of HLA-C*03:07 with peptide", "setting": "HLA-C*03:07", "value": "protein complex of proper size was observed"}]}
{"sequence": "GLKEGIPALDN [G11N, T. gondii C-terminally extending peptide]", "values": [{"measurement": "refolding efficiency of HLA-A*02:01 position 80 mutants with peptide (order of residues)", "setting": "HLA-A*02:01 mutants", "value": "Ile80 (HLA-B)>Thr80 (HLA-A)>Lys80 (HLA-C*04:01)>Asn80 (HLA-C*03:07)"}]}
{"sequence": "YFDPANGKF [Y9F, reference compound]", "values": [{"measurement": "KIR2DL1-Fc binding to HLA-C*04:01-peptide complex", "setting": "KIR2DL1-Fc", "value": "strong binding signal"}]}
{"sequence": "YFDPANGKFK [Y10K]", "values": [{"measurement": "KIR2DL1-Fc binding to HLA-C*04:01-peptide complex", "setting": "KIR2DL1-Fc", "value": "abrogated"}]}
{"sequence": "GLLPELPAVGGNE", "values": [{"measurement": "relative stability of HLA-peptide complex", "setting": "HLA-A*02:01", "value": "as stable as"}]}
{"sequence": "LSSPVTKSF [L9F, core self-peptide for HLA-B*57:01, reference compound]", "values": [{"measurement": "binding of Alexa Fluor-647 HLA-B*57:01/peptide tetramer to YTS cells", "setting": "[2]", "value": "bound to YTS cells, regardless whether KIR3DL1 was expressed or not"}, {"measurement": "KIR2DL1-Fc binding to allele-mismatched HLA-B*57:01-peptide complex", "setting": "KIR2DL1-Fc", "value": "does not bind"}]}
{"sequence": "GLKEGIPAL", "values": [{"measurement": "melting temperature (Tm) of HLA-A*02:01-peptide complex", "setting": "HLA-A*02:01; differential scanning fluorimetry, SYPRO Orange, 20-85 °C", "value": 63, "unit": "°C"}, {"measurement": "relative stability of HLA-peptide complex", "setting": "HLA-A*02:01", "value": "less stable complex as compared to peptide GLLPELPAV; also recorded: as stable as those with longer peptides"}]}
